From patent US9051270B2, “Pyridone amides as modulators of sodium channels” (Vertex Pharmaceuticals Incorporated, priority 2013, dated 2015)

target: human Nav1.8 (Homo sapiens (Human), UniProt Q9Y5Y9); assay: E-VIPR optical membrane potential assay with electrical stimulation; assay type: cell-based; conditions: HEK cells expressing human Nav1.8
From the text: Sodium channels are voltage-dependent proteins that can be activated by inducing membrane voltage changes by applying electric fields. […] The instrument comprises a microtiter plate handler, an optical system for exciting the coumarin dye while simultaneously recording the coumarin and oxonol emissions, a waveform generator, a current- or voltage-controlled amplifier, and a device for inserting electrodes in well. Under integrated computer control, this instrument passes user-programmed electrical stimulus protocols to cells within the wells of the microtiter plate.
24 hours before the assay on E-VIPR, HEK cells expressing human Nav1.8 were seeded in 384-well poly-lysine coated plates at 15,000-20,000 cells per well. […] Cells were grown in vented cap flasks, in 90% humidity and 5% CO2.
To make the solution added volume of 10% Pluronic F127 stock equal to volumes of CC2-DMPE+DiSBAC6(3). The order of preparation was first mixing Pluronic and CC2-DMPE, then adding DiSBAC6(3) while vortexing, then adding Bath1+β-Cyclodextrin.
1) Pre-spotted compounds (in neat DMSO) into compound plates. […] Final compound plate volume was 80 μL (80-fold intermediate dilution from 1 μL DMSO spot; 160-fold final dilution after transfer to cell plate).
2) Prepared Hexyl Dye Solution.
3) Prepared cell plates. On the day of the assay, medium was aspirated and cells were washed three times with 100 μL of Bath1 Solution, maintaining 25 μL residual volume in each well.
4) Dispensed 25 μL per well of Hexyl Dye Solution into cell plates. Incubated for 20-35 minutes at room temp or ambient conditions.
5) Dispensed 80 μL per well of Bath1 into compound plates. Acid Yellow-17 (1 mM) was added and Potassium Chloride was altered from 4.5 to 20 mM depending on the NaV subtype and assay sensitivity.
6) Washed cell plates three times with 100 μL per well of Bath1, leaving 25 μL of residual volume. Then transferred 25 uL per well from Compound Plates to Cell Plates. Incubated for 20-35 minutes at room temp/ambient condition.
7) Read Plate on E-VIPR. […] A pre-stimulus recording was performed for 0.5 seconds to obtain the un-stimulated intensities baseline. The stimulatory waveform was followed by 0.5 seconds of post-stimulation recording to examine the relaxation to the resting state.
Data was analyzed and reported as normalized ratios of emission intensities measured in the 460 nm and 580 nm channels. The response as a function of time was reported as the ratios obtained using the following formula: […]
The data was further reduced by calculating the initial (Ri) and final (Rf) ratios. These were the average ratio values during part or all of the pre-stimulation period, and during sample points during the stimulation period. The response to the stimulus R=Rf/Ri was then calculated and reported as a function of time.
Control responses were obtained by performing assays in the presence of a compound with the desired properties (positive control), such as tetracaine, and in the absence of pharmacological agents (negative control). Responses to the negative (N) and positive (P) controls were calculated as above. The compound antagonist activity A is defined as:
[formula] where R is the ratio response of the test compound

Chain of human Nav1.8 (Q9Y5Y9 whole entry): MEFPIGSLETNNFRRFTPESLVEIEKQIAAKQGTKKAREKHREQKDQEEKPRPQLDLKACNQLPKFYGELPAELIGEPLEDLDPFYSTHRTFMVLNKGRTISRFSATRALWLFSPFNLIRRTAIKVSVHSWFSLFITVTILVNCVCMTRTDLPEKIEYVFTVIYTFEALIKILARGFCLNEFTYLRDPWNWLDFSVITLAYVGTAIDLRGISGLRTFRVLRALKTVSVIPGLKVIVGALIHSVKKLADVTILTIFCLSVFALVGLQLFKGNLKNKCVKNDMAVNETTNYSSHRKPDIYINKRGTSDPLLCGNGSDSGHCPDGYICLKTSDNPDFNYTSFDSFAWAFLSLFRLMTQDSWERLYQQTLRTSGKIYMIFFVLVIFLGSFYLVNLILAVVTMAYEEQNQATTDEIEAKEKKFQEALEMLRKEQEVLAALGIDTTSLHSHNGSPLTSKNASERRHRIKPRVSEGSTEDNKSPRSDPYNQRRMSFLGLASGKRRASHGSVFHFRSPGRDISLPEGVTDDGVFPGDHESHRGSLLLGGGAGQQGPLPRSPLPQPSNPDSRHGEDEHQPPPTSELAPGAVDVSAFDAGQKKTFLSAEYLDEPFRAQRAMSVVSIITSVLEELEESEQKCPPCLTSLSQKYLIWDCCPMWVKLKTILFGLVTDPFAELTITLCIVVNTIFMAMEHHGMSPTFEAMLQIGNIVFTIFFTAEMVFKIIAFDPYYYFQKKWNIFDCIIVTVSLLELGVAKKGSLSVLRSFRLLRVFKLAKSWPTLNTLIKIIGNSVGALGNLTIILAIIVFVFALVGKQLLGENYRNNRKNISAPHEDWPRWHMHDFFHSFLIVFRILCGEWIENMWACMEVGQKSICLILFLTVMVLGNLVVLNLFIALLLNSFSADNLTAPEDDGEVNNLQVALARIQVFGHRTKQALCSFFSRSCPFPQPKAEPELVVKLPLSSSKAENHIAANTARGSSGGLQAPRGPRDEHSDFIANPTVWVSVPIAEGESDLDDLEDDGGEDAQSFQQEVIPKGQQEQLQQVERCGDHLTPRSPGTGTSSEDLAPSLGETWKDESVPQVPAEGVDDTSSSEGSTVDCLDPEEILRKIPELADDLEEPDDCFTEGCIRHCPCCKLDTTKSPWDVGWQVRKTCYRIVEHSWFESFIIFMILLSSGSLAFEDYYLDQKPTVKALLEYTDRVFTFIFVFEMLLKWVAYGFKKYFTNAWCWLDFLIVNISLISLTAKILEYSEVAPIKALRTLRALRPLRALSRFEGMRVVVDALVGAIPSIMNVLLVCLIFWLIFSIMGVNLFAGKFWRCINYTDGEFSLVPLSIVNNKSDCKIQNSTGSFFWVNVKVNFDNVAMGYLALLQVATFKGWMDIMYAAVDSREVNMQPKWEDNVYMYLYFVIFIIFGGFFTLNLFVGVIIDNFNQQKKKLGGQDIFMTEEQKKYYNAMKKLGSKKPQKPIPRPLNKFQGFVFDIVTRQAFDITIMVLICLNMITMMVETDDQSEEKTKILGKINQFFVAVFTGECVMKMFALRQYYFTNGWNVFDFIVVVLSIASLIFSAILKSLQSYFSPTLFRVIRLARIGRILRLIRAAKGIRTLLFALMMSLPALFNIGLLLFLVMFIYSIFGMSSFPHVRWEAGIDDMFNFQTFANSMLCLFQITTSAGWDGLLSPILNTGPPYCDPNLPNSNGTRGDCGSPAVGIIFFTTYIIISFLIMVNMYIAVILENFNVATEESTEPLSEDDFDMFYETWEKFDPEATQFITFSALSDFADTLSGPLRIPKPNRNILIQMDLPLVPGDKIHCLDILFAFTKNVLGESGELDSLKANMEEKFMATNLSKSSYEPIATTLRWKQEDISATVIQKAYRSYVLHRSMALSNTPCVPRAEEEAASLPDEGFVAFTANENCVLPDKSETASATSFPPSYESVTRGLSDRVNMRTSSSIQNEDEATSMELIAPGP

| SMILES | IC50 [nM] |
| --- | --- |
| COc1ccc(Oc2ccc(F)cc2C(=O)Nc2cc[nH]c(=O)c2)cc1 [Compound 104, 5-fluoro-2-(4-methoxyphenoxy)-N-(2-oxo-1,2-dihydropyridin-4-yl)benzamide] | 1150 |
| O=C(Nc1cc[nH]c(=O)c1)c1cc(C(F)(F)F)ccc1Oc1ccc(C(F)(F)F)cc1 [Compound 74, N-(2-oxo-1,2-dihydropyridin-4-yl)-5-(trifluoromethyl)-2-(4-(trifluoromethyl)phenoxy)benzamide] | 5180 |
| COc1ccc(Oc2ccc(C(F)(F)F)cc2C(=O)Nc2cc[nH]c(=O)c2)cc1F [Compound 59, 2-(3-fluoro-4-methoxyphenoxy)-N-(2-oxo-1,2-dihydropyridin-4-yl)-5-(trifluoromethyl)benzamide] | 32 |
| COc1ccc(Oc2cc(C(F)(F)C(F)(F)F)ccc2C(=O)Nc2cc[nH]c(=O)c2)cc1F [Compound 89, 2-(3-fluoro-4-methoxyphenoxy)-N-(2-oxo-1,2-dihydropyridin-4-yl)-4-(perfluoroethyl)benzamide] | 16 |
| COc1ccc(Oc2ccc(C(F)(F)F)cc2C(=O)Nc2cc[nH]c(=O)c2)c(F)c1 [Compound 55, 2-(2-fluoro-4-methoxyphenoxy)-N-(2-oxo-1,2-dihydropyridin-4-yl)-5-(trifluoromethyl)benzamide] | 70 |
| CC1(C)CC1COc1ccc(OC(F)(F)F)cc1C(=O)Nc1cc[nH]c(=O)c1 (centres unmarked) [Compound 140, 2-((2,2-dimethylcyclopropyl)methoxy)-N-(2-oxo-1,2-dihydropyridin-4-yl)-5-(trifluoromethoxy)benzamide] | 15000 |
| O=C(Nc1cc[nH]c(=O)c1)c1ccc(Cl)cc1Oc1c(F)cccc1Cl [Compound 18, 4-chloro-2-(2-chloro-6-fluorophenoxy)-N-(2-oxo-1,2-dihydropyridin-4-yl)benzamide] | 12000 |
| Cc1cc(F)ccc1Oc1cc(C(F)(F)C(F)(F)F)ccc1C(=O)Nc1cc[nH]c(=O)c1 [Compound 112, 2-(4-fluoro-2-methylphenoxy)-N-(2-oxo-1,2-dihydropyridin-4-yl)-4-(perfluoroethyl)benzamide] | 16 |
| Cc1ccc(Oc2cc(C(F)(F)F)ccc2C(=O)Nc2cc[nH]c(=O)c2)cc1 [Compound 12, N-(2-oxo-1,2-dihydropyridin-4-yl)-2-(p-tolyloxy)-4-(trifluoromethyl)benzamide] | 106 |
| O=C(Nc1cc[nH]c(=O)c1)c1ccc(C(F)(F)F)cc1OC1C[C@@H]2C[C@@H]2C1 (stereo partly drawn) [Compound 125, 2-((1R,5S)-bicyclo[3.1.0]hexan-3-yloxy)-N-(2-oxo-1,2-dihydropyridin-4-yl)-4-(trifluoromethyl)benzamide] | 17500 |
| O=C(Nc1cc[nH]c(=O)c1)c1cc(C(F)(F)F)ccc1Oc1c(F)cccc1F [Compound 26, 2-(2,6-difluorophenoxy)-N-(2-oxo-1,2-dihydropyridin-4-yl)-5-(trifluoromethyl)benzamide] | 9650 |
| COc1ccc(Oc2ccc(C(F)(F)F)cc2C(=O)Nc2cc[nH]c(=O)c2)c(Cl)c1 [Compound 49, 2-(2-chloro-4-methoxyphenoxy)-N-(2-oxo-1,2-dihydropyridin-4-yl)-5-(trifluoromethyl)benzamide] | 24 |
| O=C(Nc1cc[nH]c(=O)c1)c1ccc(C(F)(F)F)cc1Oc1ccc(F)cc1 [Compound 5, 2-(4-fluorophenoxy)-N-(2-oxo-1,2-dihydropyridin-4-yl)-4-(trifluoromethyl)benzamide] | 39 |
| Cc1cc(F)ccc1Oc1cc(C(F)(F)F)cc(C(F)(F)F)c1C(=O)Nc1cc[nH]c(=O)c1 [Compound 153, 2-(4-fluoro-2-methylphenoxy)-N-(2-oxo-1,2-dihydropyridin-4-yl)-4,6-bis(trifluoromethyl)benzamide] | 10 |
| O=C(Nc1cc[nH]c(=O)c1)c1ccc(C(F)(F)F)cc1Oc1ccc(F)cc1Cl [Compound 77, 2-(2-chloro-4-fluorophenoxy)-N-(2-oxo-1,2-dihydropyridin-4-yl)-4-(trifluoromethyl)benzamide] | 29 |
| Cc1cc(Cl)ccc1Oc1ccc(C(F)(F)F)cc1C(=O)Nc1cc[nH]c(=O)c1 [Compound 50, 2-(4-chloro-2-methylphenoxy)-N-(2-oxo-1,2-dihydropyridin-4-yl)-5-(trifluoromethyl)benzamide] | 19 |

| SMILES | IC50 [nM] |
| --- | --- |
| O=C(Nc1cc[nH]c(=O)c1)c1cc(C(F)(F)F)ccc1Oc1ccccc1Cl [Compound 65, 2-(2-chlorophenoxy)-N-(2-oxo-1,2-dihydropyridin-4-yl)-5-(trifluoromethyl)benzamide] | 107 |
| O=C(Nc1ccc(=O)[nH]c1)c1cc(C(F)(F)F)ccc1Oc1ccc(F)cc1 [Compound 4, 2-(4-fluorophenoxy)-N-(6-oxo-1,6-dihydropyridin-3-yl)-5-(trifluoromethyl)benzamide] | 350 |
| CCCOc1ccccc1Oc1ccc(C(F)(F)F)cc1C(=O)Nc1cc[nH]c(=O)c1 [Compound 62, N-(2-oxo-1,2-dihydropyridin-4-yl)-2-(2-propoxyphenoxy)-5-(trifluoromethyl)benzamide] | 34 |
| COc1ccc(F)cc1Oc1ccc(C(F)(F)F)cc1C(=O)Nc1cc[nH]c(=O)c1 [Compound 52, 2-(5-fluoro-2-methoxyphenoxy)-N-(2-oxo-1,2-dihydropyridin-4-yl)-5-(trifluoromethyl)benzamide] | 94 |
| Cc1cccc(F)c1Oc1cc(Cl)ccc1C(=O)Nc1cc[nH]c(=O)c1 [Compound 17, 4-chloro-2-(2-fluoro-6-methylphenoxy)-N-(2-oxo-1,2-dihydropyridin-4-yl)benzamide] | 1800 |
| O=C(Nc1cc[nH]c(=O)c1)c1c(Oc2ccc(F)cc2)cccc1C(F)(F)F [Compound 43, 2-(4-fluorophenoxy)-N-(2-oxo-1,2-dihydropyridin-4-yl)-6-(trifluoromethyl)benzamide] | 380 |
| CC(C)c1ccc(Oc2ccc(F)cc2C(=O)Nc2cc[nH]c(=O)c2)cc1 [Compound 99, 5-fluoro-2-(4-isopropylphenoxy)-N-(2-oxo-1,2-dihydropyridin-4-yl)benzamide] | 5150 |
| O=C(Nc1cc[nH]c(=O)c1)c1ccc(C(F)(F)F)cc1Oc1ccc(C(F)(F)F)nc1 [Compound 144, N-(2-oxo-1,2-dihydropyridin-4-yl)-4-(trifluoromethyl)-2-((6-(trifluoromethyl)pyridin-3-yl)oxy)benzamide] | 615 |
| O=C(Nc1cc[nH]c(=O)c1)c1cc(Cl)ccc1Oc1ccc(F)cc1F [Compound 69, 5-chloro-2-(2,4-difluorophenoxy)-N-(2-oxo-1,2-dihydropyridin-4-yl)benzamide] | 112 |
| Cc1cc(C)c(C)c(Oc2ccc(C(F)(F)F)cc2C(=O)Nc2cc[nH]c(=O)c2)c1 [Compound 91, N-(2-oxo-1,2-dihydropyridin-4-yl)-5-(trifluoromethyl)-2-(2,3,5-trimethylphenoxy)benzamide] | 420 |
| Cc1ccc(F)cc1Oc1ccc(C(F)(F)F)cc1C(=O)Nc1cc[nH]c(=O)c1 [Compound 56, 2-(5-fluoro-2-methylphenoxy)-N-(2-oxo-1,2-dihydropyridin-4-yl)-5-(trifluoromethyl)benzamide] | 69 |
| Cc1c[nH]c(=O)cc1NC(=O)c1ccc(C(F)(F)F)cc1Oc1ccc(F)cc1C [Compound 86, 2-(4-fluoro-2-methylphenoxy)-N-(5-methyl-2-oxo-1,2-dihydropyridin-4-yl)-4-(trifluoromethyl)benzamide] | 3550 |
| CC1(C)CC1COc1cc(C(F)(F)F)ccc1C(=O)Nc1cc[nH]c(=O)c1 (centres unmarked) [Compound 124, 2-((2,2-dimethylcyclopropyl)methoxy)-N-(2-oxo-1,2-dihydropyridin-4-yl)-4-(trifluoromethyl)benzamide] | 485 |
| O=C(Nc1cc[nH]c(=O)c1)c1ccc(C(F)(F)F)cc1Oc1ccccc1OC(F)F [Compound 83, 2-(2-(difluoromethoxy)phenoxy)-N-(2-oxo-1,2-dihydropyridin-4-yl)-4-(trifluoromethyl)benzamide] | 46 |
| COc1cc(F)ccc1Oc1cc(C#N)ccc1C(=O)Nc1cc[nH]c(=O)c1 [Compound 22, 4-cyano-2-(4-fluoro-2-methoxyphenoxy)-N-(2-oxo-1,2-dihydropyridin-4-yl)benzamide] | 100 |
| O=C(Nc1ccc(=O)[nH]c1)c1ccccc1Oc1ccc(F)cc1 [Compound 3, 2-(4-fluorophenoxy)-N-(6-oxo-1,6-dihydropyridin-3-yl)benzamide] | 13500 |
